Reference: US20050232975A1, “Composition and method to improve quality and yield of meat products” (priority 2002, published 2005)

Experiments:
Format in all cases: in vivo
beef cattle [1] = experiment: Example I: water retention (drip loss, moisture, free/bound/immobile water) of meat cuts after one-time oral administration to beef cattle pre-harvest; set-up: Total moisture: unit not given here; conditions: about 6 hours prior to harvest
Method: To study the dose/response efficacy of a one-time administration of Vitamin C to beef cattle on the water retention of various cuts of meat prepared post-harvest, Applicants' studied four (4) treatments. Those treatments were is administered orally to 4 head of cattle about 6 hours prior to harvest. In a first control treatment, no Vitamin C was administered. In a second treatment, the animal's feed included about 50 grams of a phosphorylated Vitamin C sold in commerce by Roche Vitamins, Inc. under the name Rovimix® Stay-C®. In a third treatment, the animal's feed included about 100 grams of Rovimix® Stay-C®. In a fourth treatment, the animal's feed included about 150 grams of Rovimix® Stay-C®. Table I summarizes the results of this Example I. In treatments 2, 3, and 4, the phosphorylated Vitamin C was disposed in about 200 grams of grapefruit pulp. That Vitamin C/grapefruit pulp was orally administered to each of the cattle as a one-time drench. In treatment 1, the control cattle were administered the normal diet. By “LD,” Applicants mean meat products comprising the Longissimus dorsi muscle. These cuts are sold in commerce as, for example, strip loins. By “SM,” Applicants mean meat products comprising the Semimembranosus/adductor muscle. These cuts are sold in commerce as, for example, top round or inside round. By “TRI,” Applicants mean products comprising the triceps brachii muscle sometimes called the shoulder clod. These cuts are sold in commerce as, for example, beef roasts.

beef cattle [2] = experiment: Example II: pH of meat cuts post-harvest after one-time oral administration to beef cattle pre-harvest; conditions: about 6 hours prior to harvest
Method: To study the dose/response efficacy of a one-time administration of Vitamin C to beef cattle on the pH of various cuts of meat prepared post-harvest, Applicants' studied four (4) treatments. Those treatments were is administered orally to 4 head of cattle about 6 hours prior to harvest. In a first control treatment, no Vitamin C was administered. In a second treatment, the animal's feed included about 50 grams of a phosphorylated Vitamin C sold in commerce by Roche Vitamins, Inc. under the name Rovimix® Stay-C®. In a third treatment, the animal's feed included about 100 grams of Rovimix® Stay-C®. In a fourth treatment, the animal's feed included about 150 grams of Rovimix® Stay-C®.
In treatments 2, 3, and 4, the phosphorylated Vitamin C was disposed in about 200 grams of grapefruit pulp. That Vitamin C/grapefruit pulp was orally administered to each of the cattle as a one-time bolus. In treatment 1, the control cattle were administered their normal diet.

[3] = Vitamin C in the blood after oral administration to cattle
Method: Applicants have learned that oral administration of Vitamin C to cattle results in measurable Vitamin C in the blood in about 45 minutes. These blood levels reach a maximum level between about 45 minutes and about 2 hours. In certain embodiments, Applicants orally administer their composition to a meat-producing animal about 45 minutes prior to harvest. In certain embodiments, Applicants orally administer their composition to a meat-producing animal about 2 hours prior to harvest. In certain embodiments, Applicants orally administer their composition to a meat-producing animal about 6 hours prior to harvest. In certain embodiments, Applicants orally administer their composition to a meat-producing animal about 18 hours prior to harvest. In certain embodiments, Applicants orally administer their composition to a meat-producing animal about 24 hours prior to harvest. In certain embodiments, Applicants orally administer their composition to a meat-producing animal about 48 hours prior to harvest

[4] = 0 min after harvest, 50 grams oral
[5] = 0 min after harvest, 100 grams oral
[6] = 0 min after harvest, 150 grams oral
[7] = 30 min after harvest, 50 grams oral
[8] = 30 min after harvest, 100 grams oral
[9] = 30 min after harvest, 150 grams oral
[10] = 60 min after harvest, 50 grams oral
[11] = 60 min after harvest, 100 grams oral
[12] = 60 min after harvest, 150 grams oral
[13] = 90 min after harvest, 50 grams oral
[14] = 90 min after harvest, 100 grams oral
[15] = 90 min after harvest, 150 grams oral
[16] = 120 min after harvest, 50 grams oral
[17] = 120 min after harvest, 100 grams oral
[18] = 120 min after harvest, 150 grams oral
[19] = 150 min after harvest, 50 grams oral
[20] = 150 min after harvest, 100 grams oral
[21] = 150 min after harvest, 150 grams oral
[22] = 180 min after harvest, 50 grams oral
[23] = 180 min after harvest, 100 grams oral
[24] = 180 min after harvest, 150 grams oral

O=C1O[C@H]([C@@H](O)CO)C(O)=C1O [Vitamin C, L-ascorbic acid]
Percent moisture (beef cattle [1]; LD cut, 50 grams oral): 0.7021 | Total moisture (beef cattle [1]; LD cut, 50 grams oral): 384.78 | Total moisture (beef cattle [1]; LD cut, 100 grams oral): 366.33 | Bound water (beef cattle [1]; LD cut, 150 grams oral): 78.6805% | Free water (beef cattle [1]; LD cut, 150 grams oral): 21.3195% | Immobile water (beef cattle [1]; LD cut, 150 grams oral): 57.3609% | Total moisture (beef cattle [1]; LD cut, 150 grams oral): 354.2 | Bound water (beef cattle [1]; SM cut, 50 grams oral): 80.5196% | Free water (beef cattle [1]; SM cut, 50 grams oral): 19.4804% | Immobile water (beef cattle [1]; SM cut, 50 grams oral): 61.0392% | Percent moisture (beef cattle [1]; SM cut, 50 grams oral): 0.6522 | Total moisture (beef cattle [1]; SM cut, 50 grams oral): 353.36 | Bound water (beef cattle [1]; SM cut, 100 grams oral): 83.959% | Free water (beef cattle [1]; SM cut, 100 grams oral): 16.041% | Immobile water (beef cattle [1]; SM cut, 100 grams oral): 67.918% | Total moisture (beef cattle [1]; SM cut, 100 grams oral): 365.7 | Bound water (beef cattle [1]; SM cut, 150 grams oral): 75.6853% | Free water (beef cattle [1]; SM cut, 150 grams oral): 24.3147% | Immobile water (beef cattle [1]; SM cut, 150 grams oral): 51.3706% | Total moisture (beef cattle [1]; SM cut, 150 grams oral): 371.99 | Bound water (beef cattle [1]; TRI cut, 50 grams oral): 77.269% | Free water (beef cattle [1]; TRI cut, 50 grams oral): 22.731% | Immobile water (beef cattle [1]; TRI cut, 50 grams oral): 54.5381% | Percent moisture (beef cattle [1]; TRI cut, 50 grams oral): 0.7019 | Total moisture (beef cattle [1]; TRI cut, 50 grams oral): 376.45 | Total moisture (beef cattle [1]; TRI cut, 100 grams oral): 361.8 | Bound water (beef cattle [1]; TRI cut, 150 grams oral): 81.0096% | Free water (beef cattle [1]; TRI cut, 150 grams oral): 18.9904% | Immobile water (beef cattle [1]; TRI cut, 150 grams oral): 62.0192% | Total moisture (beef cattle [1]; TRI cut, 150 grams oral): 399.11 | Measured pH Of Beef Roast (beef cattle [2]; [4]): 6.82 | Measured pH Of Strip Loin (beef cattle [2]; [4]): 6.78 | Measured pH Of Top Round Cuts (beef cattle [2]; [4]): 6.70 | Measured pH Of Beef Roast (beef cattle [2]; [5]): 6.73 | Measured pH Of Strip Loin (beef cattle [2]; [5]): 6.78 | Measured pH Of Top Round Cuts (beef cattle [2]; [5]): 6.70 | Measured pH Of Beef Roast (beef cattle [2]; [6]): 6.77 | Measured pH Of Strip Loin (beef cattle [2]; [6]): 6.76 | Measured pH Of Top Round Cuts (beef cattle [2]; [6]): 6.64 | Measured pH Of Beef Roast (beef cattle [2]; [7]): 6.41 | Measured pH Of Strip Loin (beef cattle [2]; [7]): 6.45 | Measured pH Of Top Round Cuts (beef cattle [2]; [7]): 6.46 | Measured pH Of Beef Roast (beef cattle [2]; [8]): 6.43 | Measured pH Of Strip Loin (beef cattle [2]; [8]): 6.45 | Measured pH Of Top Round Cuts (beef cattle [2]; [8]): 6.44 | Measured pH Of Beef Roast (beef cattle [2]; [9]): 6.44 | Measured pH Of Strip Loin (beef cattle [2]; [9]): 6.36 | Measured pH Of Top Round Cuts (beef cattle [2]; [9]): 6.47 | Measured pH Of Beef Roast (beef cattle [2]; [10]): 6.19 | Measured pH Of Strip Loin (beef cattle [2]; [10]): 6.22 | Measured pH Of Top Round Cuts (beef cattle [2]; [10]): 6.12 | Measured pH Of Beef Roast (beef cattle [2]; [11]): 6.19 | Measured pH Of Strip Loin (beef cattle [2]; [11]): 6.25 | Measured pH Of Top Round Cuts (beef cattle [2]; [11]): 6.36 | Measured pH Of Beef Roast (beef cattle [2]; [12]): 6.26 | Measured pH Of Strip Loin (beef cattle [2]; [12]): 6.22 | Measured pH Of Top Round Cuts (beef cattle [2]; [12]): 6.20 | Measured pH Of Beef Roast (beef cattle [2]; [13]): 6.11 | Measured pH Of Strip Loin (beef cattle [2]; [13]): 6.00 | Measured pH Of Top Round Cuts (beef cattle [2]; [13]): 5.84 | Measured pH Of Beef Roast (beef cattle [2]; [14]): 6.05 | Measured pH Of Strip Loin (beef cattle [2]; [14]): 6.02 | Measured pH Of Top Round Cuts (beef cattle [2]; [14]): 6.05 | Measured pH Of Beef Roast (beef cattle [2]; [15]): 6.06 | Measured pH Of Strip Loin (beef cattle [2]; [15]): 6.07 | Measured pH Of Top Round Cuts (beef cattle [2]; [15]): 5.91 | Measured pH Of Beef Roast (beef cattle [2]; [16]): 6.10 | Measured pH Of Strip Loin (beef cattle [2]; [16]): 5.83 | Measured pH Of Top Round Cuts (beef cattle [2]; [16]): 5.75 | Measured pH Of Beef Roast (beef cattle [2]; [17]): 5.96 | Measured pH Of Strip Loin (beef cattle [2]; [17]): 5.78 | Measured pH Of Top Round Cuts (beef cattle [2]; [17]): 5.81 | Measured pH Of Beef Roast (beef cattle [2]; [18]): 5.91 | Measured pH Of Strip Loin (beef cattle [2]; [18]): 5.88 | Measured pH Of Top Round Cuts (beef cattle [2]; [18]): 5.78 | Measured pH Of Beef Roast (beef cattle [2]; [19]): 6.01 | Measured pH Of Strip Loin (beef cattle [2]; [19]): 5.75 | Measured pH Of Top Round Cuts (beef cattle [2]; [19]): 5.60 | Measured pH Of Beef Roast (beef cattle [2]; [20]): 5.89 | Measured pH Of Strip Loin (beef cattle [2]; [20]): 5.76 | Measured pH Of Top Round Cuts (beef cattle [2]; [20]): 5.59 | Measured pH Of Beef Roast (beef cattle [2]; [21]): 5.80 | Measured pH Of Strip Loin (beef cattle [2]; [21]): 5.66 | Measured pH Of Top Round Cuts (beef cattle [2]; [21]): 5.67 | Measured pH Of Beef Roast (beef cattle [2]; [22]): 5.87 | Measured pH Of Strip Loin (beef cattle [2]; [22]): 5.67 | Measured pH Of Top Round Cuts (beef cattle [2]; [22]): 5.53 | Measured pH Of Beef Roast (beef cattle [2]; [23]): 5.83 | Measured pH Of Strip Loin (beef cattle [2]; [23]): 5.59 | Measured pH Of Top Round Cuts (beef cattle [2]; [23]): 5.55 | Measured pH Of Beef Roast (beef cattle [2]; [24]): 5.79 | Measured pH Of Strip Loin (beef cattle [2]; [24]): 5.50 | Measured pH Of Top Round Cuts (beef cattle [2]; [24]): 5.57 | time to measurable Vitamin C in the blood ([3]; bovine, in vivo, po): about 45 minutes | time at which blood levels reach a maximum level ([3]; oral administration to cattle): about 45 minutes and about 2 hours
